Laboratory results taken from US9073931B2, “Liver X receptor modulators” (Vitae Pharmaceuticals, Inc., priority 2012, dated 2015).
Read-outs that look alike come from different tables or passages of the source.

Key:
LXR β LBD protein = LXR β LBD protein (Homo sapiens (Human), UniProt P55055); assay: LXR β radioligand binding assay (SPA, [3H]T0901317 competition); conditions: competition with 15 nM [3H]T0901317, LXRβ LBD
LBD of LXRα = LBD of LXRα (Homo sapiens (Human), UniProt Q13133); assay: LXR luciferase transcriptional reporter gene assay, LXRα; type: cell-based; conditions: HEK293 cells, Gal4-LXRα LBD, 16 h, read-out: LXRα CELL EC50
LBD of LXRβ [1] = target: T1, LBD of LXRβ (Homo sapiens (Human), UniProt P55055); assay: cell-based
LXR α LBD protein = LXR α LBD protein (Homo sapiens (Human), UniProt Q13133); assay: LXR α radioligand binding assay (SPA, [3H]T0901317 competition)
LBD of LXRβ [2] = target: T1, LBD of LXRβ
[3] = competition with 15 nM [3H]T0901317, LXRα LBD

Sequence of LXR β LBD protein (P55055 222-460): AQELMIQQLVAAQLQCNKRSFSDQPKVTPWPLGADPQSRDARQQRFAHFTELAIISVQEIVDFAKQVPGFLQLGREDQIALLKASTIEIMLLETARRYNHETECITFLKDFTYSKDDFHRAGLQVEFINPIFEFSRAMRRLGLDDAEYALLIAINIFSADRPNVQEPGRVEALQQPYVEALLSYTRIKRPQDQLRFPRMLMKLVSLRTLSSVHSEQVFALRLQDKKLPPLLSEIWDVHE
T1 sequence (P55055 222-460): as above
Sequence of LXR α LBD protein (Q13133 209-447): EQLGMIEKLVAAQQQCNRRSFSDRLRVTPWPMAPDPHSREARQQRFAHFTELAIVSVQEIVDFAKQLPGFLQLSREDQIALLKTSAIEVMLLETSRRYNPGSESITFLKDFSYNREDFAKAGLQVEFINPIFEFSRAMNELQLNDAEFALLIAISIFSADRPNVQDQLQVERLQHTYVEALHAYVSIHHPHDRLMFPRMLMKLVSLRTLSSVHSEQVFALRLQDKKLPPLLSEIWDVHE
Sequence of LBD of LXRα (Q13133 209-447): as above

Structure (SMILES) | Ki (LXR β LBD protein) [µM] | EC50 (LBD of LXRα) [µM] | EC50 (LBD of LXRβ [1]) [µM] | Ki (LXR α LBD protein; [3]) [µM] | Ki (LXR α LBD protein; read-out: LXRα BINDING Ki) [µM] | EC50 (LBD of LXRβ [2]) [µM]
CC(C)[C@@H]1c2nc3cc(CO)c(S(C)(=O)=O)cc3n2CCN1c1ncc(C(=O)O)c(C(F)(F)F)n1 (single isomer, unassigned) [Compound E14a] | > 2.5 | > 20 | 7.54 |  | > 3.33 | 
Cc1nc(N2CCn3c(nc4cc(CO)c(S(C)(=O)=O)cc43)[C@H]2C(C)C)ncc1CO [Compound E19, (R)-(2-(8-(hydroxymethyl)-1-isopropyl-7-(methylsulfonyl)-3,4-dihydrobenzo[4,5]imidazo[1,2-a]pyrazin-2(1H)-yl)-4-methylpyrimidin-5-yl)methanol] | > 2.5 | > 20 | > 20 | > 3.33 |  | 
CNC(=O)c1cnc(N2CCn3c(nc4cc(CO)c(S(C)(=O)=O)cc43)[C@H]2C(C)C)nc1C(F)(F)F (single isomer, unassigned) [Compound E16a] |  | > 20 |  |  | > 3.33 | 
CC(C)C1c2cc3cc(CO)c(S(C)(=O)=O)cc3n2CCN1c1ncc(C(C)(C)O)c(C(F)(F)F)n1 (single isomer, unassigned) [Compound E27b, 2-(2-(8-(hydroxymethyl)-1-isopropyl-7-(methylsulfonyl)-3,4-dihydropyrazino[1,2-a]indol-2(1H)-yl)-4-(trifluoromethyl)pyrimidin-5-yl)propan-2-ol] | 0.712 |  |  |  |  | 1.44
CC(C)[C@H]1c2nc3cc(CO)c(S(C)(=O)=O)cc3n2CCN1c1ncc(C(=O)O)c(C(F)(F)F)n1 (single isomer, unassigned) [Compound E14b] | > 2.5 | > 20 | > 20 |  | > 3.33 | 

Continued, values first:

Ki (LXR β LBD protein) [µM] | EC50 (LBD of LXRα) [µM] | EC50 (LBD of LXRβ [1]) [µM] | Ki (LXR α LBD protein; [3]) [µM] | Ki (LXR α LBD protein; read-out: LXRα BINDING Ki) [µM] | EC50 (LBD of LXRβ [2]) [µM] | Structure (SMILES)
1.16 | 17.3 | 4.62 | > 3.33 |  |  | CCOC(=O)c1cnc(N2CCn3c(nc4ccc(S(C)(=O)=O)cc43)C2C(C)C)nc1C(F)(F)F (racemic) [Compound E3, Ethyl 2-(1-isopropyl-7-(methylsulfonyl)-3,4-dihydrobenzo[4,5]imidazo[1,2-a]pyrazin-2(1H)-yl)-4-(trifluoromethyl)pyrimidine-5-carboxylate]
 | > 20 |  |  | > 3.33 |  | CNC(=O)c1cnc(N2CCn3c(nc4cc(CO)c(S(C)(=O)=O)cc43)[C@@H]2C(C)C)nc1C(F)(F)F (single isomer, unassigned) [Compound E16b]
> 2.5 | > 20 | 2.69 | > 3.33 |  |  | CC(C)C1c2nc3ccc(S(C)(=O)=O)cc3n2CCN1c1ncc(C(N)=O)c(C(F)(F)F)n1 (racemic) [Compound E5, 2-(1-isopropyl-7-(methylsulfonyl)-3,4-dihydrobenzo[4,5]imidazo[1,2-a]pyrazin-2(1H)-yl)-4-(trifluoromethyl)pyrimidine-5-carboxamide]
